Assay results: patent US10213429B2, “Imidazo-pyrazinyl derivatives useful as soluble guanylate cyclase activators” (Merck Sharp & Dohme Corp., priority 2015, dated 2019)

Legend:
sGC α1/β1 heterodimer = biological target: T1, sGC α1/β1 heterodimer (Homo sapiens, UniProt Q02108+Q02153); assay: Cell-Based sGC Functional Assay (CASA Assay), cGMP by HTRF in CHO-K1/sGC cells; conditions: for Emax: CHO-K1, percent activation relative to maximum cGMP production of Compound A (= 100%), read-out: % Act.; for EC50: cGMP production, 1 hr at 37° C., 4P fit, presence or absence of 1 μM DETA-NO not given, read-out: IP (nM) (inflection point)
T1 construct: expressed in transfected cells; host or cells: CHO-K1 (clone #7, CHO-K1/sGC)
T1 sequence (Q02108 1-690): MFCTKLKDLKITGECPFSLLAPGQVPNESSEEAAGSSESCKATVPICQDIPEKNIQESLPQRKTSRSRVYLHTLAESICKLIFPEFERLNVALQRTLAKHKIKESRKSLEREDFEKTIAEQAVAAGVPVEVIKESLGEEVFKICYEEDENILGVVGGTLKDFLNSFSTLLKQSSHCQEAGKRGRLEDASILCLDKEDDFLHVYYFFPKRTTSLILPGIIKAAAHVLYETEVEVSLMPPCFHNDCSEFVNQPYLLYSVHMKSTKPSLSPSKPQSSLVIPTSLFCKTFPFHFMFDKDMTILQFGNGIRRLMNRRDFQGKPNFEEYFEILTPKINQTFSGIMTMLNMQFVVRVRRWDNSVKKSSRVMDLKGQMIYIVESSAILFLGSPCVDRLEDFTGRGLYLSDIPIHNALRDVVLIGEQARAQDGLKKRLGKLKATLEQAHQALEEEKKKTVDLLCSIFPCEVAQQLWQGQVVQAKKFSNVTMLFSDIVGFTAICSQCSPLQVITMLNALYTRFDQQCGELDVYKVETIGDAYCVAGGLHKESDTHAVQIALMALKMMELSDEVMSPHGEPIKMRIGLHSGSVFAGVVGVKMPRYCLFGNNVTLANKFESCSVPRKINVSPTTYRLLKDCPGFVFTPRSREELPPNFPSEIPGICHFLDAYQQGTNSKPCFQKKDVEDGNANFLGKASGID
T1 sequence (Q02153 1-619): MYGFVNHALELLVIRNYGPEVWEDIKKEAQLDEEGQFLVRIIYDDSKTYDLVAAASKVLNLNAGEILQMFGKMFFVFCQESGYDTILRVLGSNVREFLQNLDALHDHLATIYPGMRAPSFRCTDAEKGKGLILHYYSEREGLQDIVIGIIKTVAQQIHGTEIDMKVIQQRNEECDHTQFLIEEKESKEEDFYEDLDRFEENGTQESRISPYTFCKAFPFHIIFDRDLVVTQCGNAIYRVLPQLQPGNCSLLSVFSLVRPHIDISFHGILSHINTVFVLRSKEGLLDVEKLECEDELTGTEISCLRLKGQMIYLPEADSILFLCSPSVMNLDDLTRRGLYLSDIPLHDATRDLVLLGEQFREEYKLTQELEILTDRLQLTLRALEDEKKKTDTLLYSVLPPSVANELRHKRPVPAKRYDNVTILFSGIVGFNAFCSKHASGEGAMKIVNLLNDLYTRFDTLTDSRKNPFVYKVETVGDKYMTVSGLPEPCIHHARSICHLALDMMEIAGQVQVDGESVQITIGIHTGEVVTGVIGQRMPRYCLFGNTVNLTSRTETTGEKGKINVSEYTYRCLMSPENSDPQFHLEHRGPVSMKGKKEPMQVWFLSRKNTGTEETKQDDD
Method in brief: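 CHO-K1 cells stably expressing human sGC α1/β1, in EBSS buffer with 5 mM MgCl2, 10 mM HEPES, 0.05% BSA and 0.5 mM IBMX, incubated with compound (2.5% DMSO) ± 1 μM DETA-NO, 1 h, 37 °C. Intracellular cGMP read by HTRF; activity as % of reference activator maximum, IP from 4-parameter fit.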

[1] = tested on: Spontaneously hypertensive rats (SHR); assay: Acute Efficacy in Spontaneously Hypertensive Rats (SHR), telemetry blood pressure; format: in vivo, rat; conditions: SHR male
Source text: Acute Efficacy in Spontaneously Hypertensive Rats (SHR)
Spontaneously hypertensive rats (SHR, male, Charles River) were implanted with DSI TA11PA-C40 telemetry device (Data Sciences, Inc., St. Paul, Minn.) under isoflurane or ketamine/metomidine anesthesia. The telemetry unit catheter was inserted into the descending aorta via the femoral artery and the telemetry device was implanted subcutaneously in the left flank area. Animals were allowed to recover from surgery for 14 days before the start of any studies. Blood pressure, heart rate, and activity signals from conscious, freely moving rats were recorded continuously for 30 seconds every 10 minutes. On the day prior to administration of compound, a single oral dose of vehicle (10% transcutol/20% Cremophor/70% water) was administered to all animals to establish baseline control data. The blood pressure lowering efficacy of compound (PO) or vehicle was evaluated following a single oral gavage. Data were collected as hourly averages, and changes in blood pressure were calculated by subtracting control baseline data on an hourly basis. Animals were maintained on normal diet with a 12 hour light-dark cycle.
Maximum peak decreases of systolic blood pressure (SBP) in SHR at a particular P.O. dose (mpk milligrams per kilogram) for the following representative compounds are provided. • Category A=SBP in SHRs<20 mmHg; Category B=SBP in SHRs 20-40 mmHg; • Category C=SBP in SHRs>40 mmHg

SMILES | Emax (sGC α1/β1 heterodimer) [%] | EC50 (sGC α1/β1 heterodimer) [nM] | Cat. (maximum peak decrease of systolic blood pressure (SBP) in SHR) ([1]; single oral dose 1.0 mpk P.O.) | Cat. (maximum peak decrease of systolic blood pressure (SBP) in SHR) ([1]; single oral dose 3.0 mpk P.O.) | Cat. (maximum peak decrease of systolic blood pressure (SBP) in SHR) ([1]; single oral dose 0.3 mpk P.O.)
CCCCc1nc(-c2nc(O)c3c(n2)NC(=O)C3(c2ccc(Cl)cc2)C2CC2)cn2ccnc12 (stereo not drawn) [Example 23B, 2-(8-butylimidazo[1,2-a]pyrazin-6-yl)-5-(4-chlorophenyl)-5-cyclopropyl-4-hydroxy-5H-pyrrolo[2,3-d]pyrimidin-6(7H)-one] | 146 | 204 | A (Category A=SBP in SHRs<20 mmHg) |  | 
O=C1Nc2nc(-c3cn4ccnc4c(CCCC(F)(F)F)n3)nc(O)c2C1(c1ccc(Cl)cc1)C1CC1 (stereo not drawn) [Example 24B, 5-(4-chlorophenyl)-5-cyclopropyl-4-hydroxy-2-(8-(4,4,4-trifluorobutyl)imidazo[1,2-a]pyrazin-6-yl)-5H-pyrrolo[2,3-d]pyrimidin-6(7H)-one] | 169 | 106 |  | A (Category A=SBP in SHRs<20 mmHg) | 
CC1(c2ccc(Cl)cc2)C(=O)Nc2nc(-c3cn4ccnc4c(CCCC(F)(F)F)n3)nc(O)c21 (stereo not drawn) [Example 26A, 5-(4-chlorophenyl)-4-hydroxy-5-methyl-2-(8-(4,4,4-trifluorobutyl)imidazo[1,2-a]pyrazin-6-yl)-5H-pyrrolo[2,3-d]pyrimidin-6(7H)-one] | 90 | 200 |  | C (Category C=SBP in SHRs>40 mmHg) | 
CC1(c2ccc(Cl)cn2)C(=O)Nc2nc(-c3cn4ccnc4c(CC4CCC4)n3)nc(O)c21 (stereo not drawn) [Example 27A, 5-(5-chloropyridin-2-yl)-2-(8-(cyclobutylmethyl)imidazo [1,2-a]pyrazin-6-yl)-4-hydroxy-5-methyl-5H-pyrrolo[2,3-d]pyrimidin-6(7H)-one] | 95 | 645 |  | B (Category B=SBP in SHRs 20-40 mmHg) | 
CC1(c2ccc(Cl)cn2)C(=O)Nc2nc(-c3cn4ccnc4c(CCCC(F)(F)F)n3)nc(O)c21 (stereo not drawn) [Example 28A, 5-(5-chloropyridin-2-yl)-4-hydroxy-5-methyl-2-(8-(4,4,4-trifluorobutyl)imidazo[1,2-a]pyrazin-6-yl)-5H-pyrrolo[2,3-d]pyrimidin-6(7H)-one] | 95 | 245 | A (Category A=SBP in SHRs<20 mmHg) |  | 
CC1(c2ccc(F)cc2)C(=O)Nc2nc(-c3cn4ccnc4c(CC4CCC4)n3)nc(O)c21 (stereo not drawn) [Example 29A, 2-(8-(cyclobutylmethyl)imidazo [1,2-a]pyrazin-6-yl)-5-(4-fluorophenyl)-4-hydroxy-5-methyl-5H-pyrrolo[2,3-d]pyrimidin-6(7H)-one] | 92 | 225 |  | B (Category B=SBP in SHRs 20-40 mmHg) | 
CC1(c2ccc(F)cc2)C(=O)Nc2nc(-c3cn4ccnc4c(CCCC(F)(F)F)n3)nc(O)c21 (stereo not drawn) [Example 30A, 5-(4-fluorophenyl)-4-hydroxy-5-methyl-2-(8-(4,4,4-trifluorobutyl)imidazo[1,2-a]pyrazin-6-yl)-5H-pyrrolo[2,3-d]pyrimidin-6(7H)-one] | 89 | 436 | B (Category B=SBP in SHRs 20-40 mmHg) |  | 
CC1(c2ccc(F)cn2)C(=O)Nc2nc(-c3cn4ccnc4c(CC4CCC4)n3)nc(O)c21 (stereo not drawn) [Example 31B, 2-(8-(cyclobutylmethyl)imidazo [1,2-a]pyrazin-6-yl)-5-(5-fluoropyridin-2-yl)-4-hydroxy-5-methyl-5H-pyrrolo[2,3-d]pyrimidin-6(7H)-one] | 82 | 459 |  | B (Category B=SBP in SHRs 20-40 mmHg) | 
CC1(c2ccc(F)cn2)C(=O)Nc2nc(-c3cn4ccnc4c(CCCC(F)(F)F)n3)nc(O)c21 (stereo not drawn) [Example 32B, 5-(5-fluoropyridin-2-yl)-4-hydroxy-5-methyl-2-(8-(4,4,4-trifluorobutyl)imidazo[1,2-a]pyrazin-6-yl)-5H-pyrrolo[2,3-d]pyrimidin-6(7H)-one] | 115 | 880 | B (Category B=SBP in SHRs 20-40 mmHg) |  | 
O=C1Nc2nc(-c3cn4ccnc4c(CCCC(F)(F)F)n3)nc(O)c2C1(c1ccc(Cl)cc1F)C1CC1 (stereo not drawn) [Example 34A, 5-(4-chloro-2-fluorophenyl)-5-cyclopropyl-4-hydroxy-2-(8-(4,4,4-trifluorobutyl)imidazo[1,2-a]pyrazin-6-yl)-5H-pyrrolo[2,3-d]pyrimidin-6(7H)-one] | 124 | 102 |  | B (Category B=SBP in SHRs 20-40 mmHg) | 
O=C1Nc2nc(-c3cn4ccnc4c(CCCC(F)(F)F)n3)nc(O)c2C1(c1ccc(F)cc1)C1CC1 (stereo not drawn) [Example 35B, 5-cyclopropyl-5-(4-fluorophenyl)-4-hydroxy-2-(8-(4,4,4-trifluorobutyl)imidazo[1,2-a]pyrazin-6-yl)-5H-pyrrolo[2,3-d]pyrimidin-6(7H)-one] | 148 | 190 |  | A (Category A=SBP in SHRs<20 mmHg) | 
CC1(c2ccc(Cl)cn2)C(=O)Nc2nc(-c3cn4ccnc4c(CCC(F)(F)C(F)(F)F)n3)ncc21 (stereo not drawn) [Example 36A, 5-(5-Chloropyridin-2-yl)-5-methyl-2-(8-(3,3,4,4,4-pentafluorobutyl)imidazo[1,2-a]pyrazin-6-yl)-5H-pyrrolo[2,3-d]pyrimidin-6(7H)-one] | 104 | 54 |  |  | A (Category A=SBP in SHRs<20 mmHg)
CC1(c2ccc(F)c(F)c2)C(=O)Nc2nc(-c3cn4ccnc4c(CCC(F)(F)F)n3)ncc21 (stereo not drawn) [Example 37B, 5-(3,4-difluorophenyl)-5-methyl-2-(8-(3,3,3-trifluoropropyl)imidazo[1,2-a]pyrazin-6-yl)-5H-pyrrolo[2,3-d]pyrimidin-6(7H)-one] | 125 | 800 |  | B (Category B=SBP in SHRs 20-40 mmHg) | 
CCCc1nc(-c2ncc3c(n2)NC(=O)C3(C)c2ccc(Cl)c(F)c2)cn2ccnc12 (stereo not drawn) [Example 38B, 5-(4-chloro-3-fluorophenyl)-5-methyl-2-(8-propylimidazo[1,2-a]pyrazin-6-yl)-5H-pyrrolo[2,3-d]pyrimidin-6(7H)-one] | 135 | 173 | A (Category A=SBP in SHRs<20 mmHg) |  | 
CCCc1nc(-c2ncc3c(n2)NC(=O)C3(C)c2ccc(Cl)cc2)cn2ccnc12 (stereo not drawn) [Example 39A, 5-(4-chlorophenyl)-5-methyl-2-(8-propylimidazo[1,2-a]pyrazin-6-yl)-5H-pyrrolo[2,3-d]pyrimidin-6(7H)-one] | 101 | 92 | A (Category A=SBP in SHRs<20 mmHg) |  | 
